Results published in patent US9884012B2, “Use of PEDF-derived polypeptides for promoting muscle or tendon regeneration or arteriogenesis” (MacKay Memorial Hospital, priority 2012, dated 2018).
Marks after values point to notes of the source that are not given here.

What was measured:
[1] = system: adductor magnus muscle arterioles; assay: hindlimb ischemia model, arteriole density (α-SMA) in adductor magnus muscle; assay type: in vivo, C57BL/6 wild-type mice; conditions: two weeks after surgery, sustained-release formulation (Bolus: bolus 29-mer)
Experimental: The small artery densities (α-SMA positive cells surrounding the whole circumference of the vessel) were measured and images were taken from 10 randomly-selected areas of adductor magnus muscle (200× magnification) in each sample, and blinded quantification was performed in triplicate by manually counting within each section; values from five sections were then averaged and expressed as arteriole density per mm^2.
(§1) 6-week-old female C57BL/6 wild-type mice were anesthetized by an intraperitoneal injection of a mixture of zoletil (6 mg/kg) and xylazine (3 mg/kg). Hair was removed from the hindquarter with a depilating cream. To establish hindlimb ischemia, unilateral external iliac and femoral arteries and veins were ligated, cut, and excised. After surgery, the mice were randomly assigned to several experimental groups (n=6, each group) and treated as follows. In the blank control group, the mice were treated with 50 μl of blank alginate gel, whereas in the bolus control group, the mice received the bolus formulation containing 29-mer. In the PEDF peptide/alginate gel treatment groups, the mice received 50 μl of the sustained-release formulation, which comprised either 29-mer, 24-mer, or 20-mer. Additionally, in a PEDF 18-mer control group, mice were treated with a sustained-release formulation containing a PEDF 18-mer peptide. Treatments were applied by way of a single intramuscular injection to the gracilis muscle immediately after femoral artery and vein excision operation. The incision was closed after the wound was irrigated with sterile saline.
To investigate the arteriogenic effect of the present sustained-release formulation, adductor magnus muscles (located at the same level as femoral artery excision and in which arteriogenesis responsible for establishing collateral circulation is expected to be found) were harvested from animals in each experimental condition, two weeks after the surgery. Arterioles in muscle cross sections were identified by immunohistological staining for vascular smooth muscle cells (α-SMA; brown), and nuclei were labeled with hematoxylin; representative photographs were provided in FIG. 5. Quantitative analysis was also performed and the results were summarized in Table 3, and the data were expressed as α-SMA-positive arterioles per mm^2 in the peri-injury region.

[2] = system: tendo Achilles; assay: tendo Achilles injury model, histology and collagen in regenerated area; assay type: in vivo, Sprague-Dawley rats; conditions: three weeks after tendon injury; for Collagen in Regenerated Area (%): 150 μl sustained-release formulation (Bolus: bolus 29-mer) subcutaneously near tendon lesion
Experimental: De-paraffinized tendon tissue sections were stained using Masson's Trichrome according to the manufacturer's instructions. For semi-quantitative analysis of collagen area, 10 fields from each slide were randomly selected under a light microscope, and the repairing area per intact tendon area of the cross section (mm^2/mm^2) was measured using the Image-Pro Plus 4.5.1 system.
To investigate the effects of the present PEDF peptides on tendon regeneration, a rat model with tendon injury was established as follows. Adult 10-week-old male Sprague-Dawley rats (total n=50; initial body weight=312±11 g) were anesthetized by an intraperitoneal injection of a xylazine (10 mg/kg). Then, the left tendo Achilles injury was created by full-thickness insertion of an 18-gauge needle through tendo Achilles 1 cm proximal to its insertion into the calcaneum. This created a horizontal (transaction) wound which was flanked by intact tendon tissue on both sides to prevent the retraction of severed ends.
The rats were randomly assigned (n=10/group) to five experimental groups and treated as follows. In the blank control group, the mice were treated with 150 μl of blank alginate gel. For the bolus control group, 150 μl of the bolus formulation (29-mer) was administered. In the treatments groups, the mice received 150 μl of the sustained-release formulation (29-mer, 24-mer, or 20-mer). Treatments were injected subcutaneously near tendon lesion immediately after the injury, and the incision was closed after the wound was irrigated with sterile saline.
Three weeks after tendon injury, histologic analysis was performed to observe the healing of the tendon. As could be seen in the upper panel of FIG. 10, in animals treated with blank control, a broad band of disorganized fibrous scar was formed between the two cut ends, and the pink stained collagen bundle was minimal in the scar tissue. […] Also, the fibrous tissue in the scar was more organized and in parallel direction in the 29-mer treatment group.
Quantitative analysis was also performed to assess the percentage of collagen (%) in the regenerated area, and results were summarized in Table 7.

[3] = system: tibialis anterior muscle; assay: hindlimb ischemia model, tibialis anterior muscle necrosis/fibrosis and centrally nucleated fibers; assay type: in vivo, C57BL/6 wild-type mice; conditions: two weeks after surgery, sustained-release formulation (Bolus: bolus 29-mer)
Experimental: The gracilis, adductor magnus, soleus, and tibialis muscles were fixed in 4% paraformaldehyde, dehydrated with graded ethanol series, and paraffinized. Fixed samples were de-paraffinized in xylene and rehydrated in a graded series of ethanol. Tissues were sliced into 5-μm sections. General histology was performed using H&E dye.
To ascertain the number of centrally nucleated muscle fibers, sections were stained with H&E and then photographed as described above. At least 100 stained fibers were randomly chosen from each photo. Muscle fibers were judged centrally nucleated if one or more nuclei were not located at the periphery of the fiber. The data were expressed as a % of the total number of muscle fibers counted. Results were evaluated from 6 sections per muscle section, and 10 mice at each group.
as §1
In most hindlimb ischemia models, tissue necrosis generally occurs in the muscles below the knee. For example, tibialis anterior muscle, which is distant to the gracilis muscle where the treatment was administered, often undergoes extensive necrosis with regeneration after femoral artery excision. The intensity of Masson's trichrome blue color staining depended on the content of collagen fibers in the investigated tissue, and fibrosis is the result of necrosis. […] Results from representative samples are illustrated in FIGS. 4A and 4B.
Statistical analyses regarding injured area (necrotic area+fibrotic area) and numbers of centrally nucleated fibers were also performed at two weeks after the surgery, and the results were summarized in Table 2. The injured area is expressed as the percent of total stained area (%), and the centrally nucleated fibers is expressed as the total number of muscle fibers counted (%).

[4] = system: aortic ring explants; assay: rat aortic ring sprouting assay (ex vivo neovessel sprouting); assay type: cell-based; conditions: day 4; 50 ng/ml PEDF peptide, 50 ng/ml VEGF-A, 20 ng/ml FGF-2; MCDB131, 1% FBS, Matrigel
Experimental: To further confirm the neovessel development promoted by PEDF peptides, rat aortic ring sprouting assay was performed. Thoracic aortas were removed from euthanized rats and gently stripped of peri-aortic fibroadipose tissue. Aortas were sectioned into about 2-mm length rings, which were then embedded in a growth factor-reduced Matrigel. Gels containing the aortic rings were polymerized in 12-well plates incubated at 37° C. for 30 minutes. 1 ml of MCDB131 medium supplemented with 100 units/ml penicillin and […] streptomycin, 1% FBS, and a supplemental agent (50 ng/ml VEGF-A, 20 ng/ml FGF-2, or 50 ng/ml 29-mer, 24-mer, 20-mer, Mo 29-mer, Mo 20-mer, 25-mer, or 18-mer) were added to the Matrigel-containing explants. The cultures were propagated at 37° C. in a humidified incubator for up to 4 days, with media changes every other day. Neovessel sprouting was assessed until day 4 using an inverted microscope platform (Leica) with bright-field optics; representative photographs were provided in FIG. 6. Quantification of neovessel sprouting was assessed using Image-Pro Plus 6.0 software (Dendrites program). The experiment was repeated in triplicate.

Sequence: SLGAEQRTESIIHRALYYDL [20-mer, synthetic peptide corresponding to residues 93-112 of human PEDF]
- Arteriole Density per mm^2 (α-SMA-positive arterioles) [1]: 10.7 ± 1.2 per mm^2
- Collagen in Regenerated Area (%) [2]: 82.01 ± 6.55%
- Centrally nucleated fibers (%) [3]: 61.2 ± 5.8 %
- Injured Area (%) (necrotic area + fibrotic area, percent of total stained area) [3]: 38.0 ± 5.2 %
- Neovessel Sprouting Fold [4]: 6.5* fold of untreated aortic ring

Sequence: SLGAEQRTESIIHRALYYDLISSP [24-mer, synthetic peptide corresponding to residues 93-116 of human PEDF]
- Arteriole Density per mm^2 (α-SMA-positive arterioles) [1]: 10.0 ± 0.58 per mm^2
- Collagen in Regenerated Area (%) [2]: 85.75 ± 2.56%
- Centrally nucleated fibers (%) [3]: 67.8 ± 5.3 %
- Injured Area (%) (necrotic area + fibrotic area, percent of total stained area) [3]: 36.8 ± 5.5 %
- Neovessel Sprouting Fold [4]: 6.2* fold of untreated aortic ring

Sequence: SLGAEQRTESIIHRALYYDLISSPDIHGT [29-mer, synthetic peptide corresponding to residues 93-121 of human PEDF]
- Arteriole Density per mm^2 (α-SMA-positive arterioles) [1]: 11.7 ± 1.5 per mm^2
- Collagen in Regenerated Area (%) [2]: 88.75 ± 1.89%
- tendon healing, histology of cut ends ([2]; sustained-release formulation, in words): healed with much lesser scar tissue
- Centrally nucleated fibers (%) [3]: 72.5 ± 5.2 %
- Injured Area (%) (necrotic area + fibrotic area, percent of total stained area) [3]: 39.5 ± 4.2 %
- Neovessel Sprouting Fold [4]: 5.6* fold of untreated aortic ring
